# Test results published in US12383585B2, “Methods of treatment of infections using bacteria” (Decoy Biosystems, Inc., priority 2018, dated 2025).
# How the values were obtained:
# [1] = system: human peripheral blood mononuclear cells (PBMCs); assay: Induction of cytokine secretion from human PBMCs in vitro (Luminex); assay type: cell-based; conditions: full titration peak mean
# Protocol: Supernatants were harvested by centrifuging plates at 1,000 rpm for 10 minutes and stored at −80° C. Luminex analysis of cytokine levels was carried out with Millipore Human Cytokine/Chemokine Magnetic Bead panels HCYTOMAG-60K and HSTCMAG-28SK. Levels of cytokines were interpolated off a standard curve using a […] non-linear regression analysis where the fit=(A+((B−A)/(1+(((B−E)/(E−A))*((x/C)^D))))). The interpolated data was normalized to vehicle control or unstimulated control and analyzed. PBMCs from fresh normal peripheral blood leukapheresis paks (ALLCells, Alameda, CA) were isolated using a Ficoll gradient (Ficoll-Paque PLUS, Cat #17-144-02, density 1.077+/−0.001 g/mL from GE Healthcare Bio-Sciences, Pittsburgh, PA). The bacteria vehicle was phosphate-buffered saline (PBS) with no calcium and 2 mM MgCl2.
# The experiment was carried out as described for Table 1.
# [2] = system: AAV/HBV (human HBV genome, genotype D); assay: AAV/HBV mouse model, long-term HBV inhibition with indomethacin (Example 5); assay type: in vivo, C57BL/6 mouse; conditions: for inhibition of HBV DNA production (plasma): all groups given indomethacin 10 μg/mL in drinking water, ETV 0.1 mg/kg
# Protocol: This experiment was conducted in order to determine if a non-steroidal anti-inflammatory drug (NSAID) could enhance anti-viral activity by Decoy bacteria, if the anti-viral activity of Decoy is lost after cessation of treatment, and the potential toxic effects of ETV, Decoy and ETV+Decoy treatment. The experiment was carried out as described in Example 4, except that the AAV/HBV virus was injected at day −29, relative to start of dosing. HBV-DNA, HBsAg and HBeAg levels in plasma were determined on days −15, −8 and −1, relative to start of dosing on day 0, and the ETV dose was increased to 0.1 mg/kg. In addition, all groups represented in FIGS. 3, 4, 5 and 6 were administered indomethacin (NSAID) daily (10 μg/mL in drinking water). Dosing was carried out for 5 weeks as in Example 4, with plasma levels of HBV-DNA, HBsAg and HBeAg determined weekly, as well as every other week for 27 weeks after cessation of treatment. Inhibitory activity was determined by comparing treated groups at each time point to the control (indomethacin alone) group at the same time-point by unpaired, non-parametric Mann-Whitney statistical analysis.
# Upon termination, the liver from each mouse was divided into multiple sections, snap frozen in liquid nitrogen immediately upon collection and stored at −80° C. Liver sections were used for HBV DNA detection and additional sections from each mouse liver were fixed in 10% neutral buffered formalin (NB F) for about 24 hours, then transferred for routine dehydration and paraffin embedding. Paraffin blocks were sectioned for hematoxylin-eosin (H&E) staining and pathology analysis, as well immunohistochemistry (IHC) analysis for HBsAg and HBcAg.
# [3] = system: AAV/HBV (human HBV genome, genotype D); assay: AAV/HBV mouse model, HBV inhibition (Example 4); assay type: in vivo, C57BL/6 mouse; conditions: for inhibition of HBeAg production (plasma): day 28 of dosing (Day 59 after infection)
# Source text: Adeno-associated virus/hepatitis B virus (AAV/HBV) is a recombinant AAV carrying replicable human HBV genome. Taking the advantage of the highly hepatotropic feature of genotype 8 AAV, the human HBV genome can be efficiently delivered to mouse liver cells. Infection of immune competent mice with AAV/HBV can result in long term HBV viremia, including release of human HBV virions, HBsAg and HBeAg into the blood, which mimics chronic HBV infection in patients. The AAV/HBV model can be used to evaluate the in vivo activity of various types of anti-HBV agents. Furthermore, this is an appropriate model for evaluation of immune modulators (see, for example Huang et al., Int. J. Onc. v39 pp1511-1519, 2011).
# rAAV8-1.3HBV, genotype D, was purchased from Beijing FivePlus Molecular Medicine Institute (batch number A2018092406). The stock virus of 1×10^12 viral genome (v.g.)/mL was diluted to 5×10^11 v.g./mL with sterile phosphate-buffered saline (PBS) and 1×10^11 v.g. AAV/HBV in 200 μL was injected per 5 week old male C57BL/6 mouse 31 days prior to the initiation of dosing (day −31).
# Blood samples (˜100 μL) were collected into K2-EDTA coated tubes via submandibular bleeding on days −17, −7 and −4. The samples were centrifuged at 7,000 g (4° C.) for 10 minutes for plasma collection. At least 40 μL plasma samples were prepared to determine the level of HBV-DNA by qPCR, and the levels of HBs Antigen (HBsAg) and HBe Antigen (HBeAg) by enzyme-linked immunosorbent assay (ELISA). Remaining plasma samples were stored at −80° C. for post-life assays. Based on the plasma levels of HBV DNA, HBsAg, HBeAg and body weights on days −17, −7 and −4, mice with qualified viral infection levels were selected and randomly divided into 7 groups with 5 mice in each group on day −1. All mice were evenly distributed in each group, to ensure no significant difference existed between each group in terms of HBV DNA, HBsAg, HBeAg level and body weight on day −4.
# Animal groups were untreated, treated with Entecavir (ETV) at 0.005 mg/kg orally (p.o.) daily on days 0-34, Decoy at 2×10^8 killed bacteria per mouse administered tail vein i.v. on days 1, 2, 8, 9, 15, 16, 22, 23, 29 and 30, or ETV and Decoy. Plasma samples were obtained weekly an analyzed for HBV-DNA, HBsAg and HBeAg as described above.
Compound,GM-CSF induction [1] [pg/mL],IFNγ induction [1] [pg/mL],IL-1β induction [1] [pg/mL],IL-6 induction [1] [pg/mL],IL-8 induction [1],IL-10 induction [1] [pg/mL],IL-12p70 induction [1] [pg/mL],TNFα induction [1] [pg/mL],inhibition of HBV DNA production (plasma) [2],"inhibition of HBV DNA at termination (day 253) ([2]; 27 weeks after cessation of treatment, in the presence of indomethacin)","inhibition of HBeAg expression in mouse livers ([2]; 27 weeks after the cessation of treatment, in the presence of indomethacin)","body weight loss ([2]; ETV treatment 0.1 mg/kg, with indomethacin)",time to significant inhibition of HBV DNA production after initiation of dosing ([3]; ETV 0.005 mg/kg p.o. daily) [days],mice with plasma HBV DNA down to the lower limit of quantitation (120 copies/μL plasma) ([3]; by day 28 of dosing (day 59 after infection)),inhibition of HBeAg production (plasma) ([3]; without indomethacin),"inhibition of HBeAg production (plasma) ([3]; without indomethacin, listed as Entecavir)","inhibition of HBV DNA production (plasma) ([3]; vs no treatment group, ETV 0.005 mg/kg p.o. daily, Decoy 2×10^8 killed bacteria i.v. twice weekly)",inhibition of HBsAg production (plasma) ([3]; without indomethacin)
CpG ODN 2006,0,7,1,241,"2,436 pg/mL",374,4,51,,,,,,,,,,
COc1ccc2c(c1)c(CC(=O)O)c(C)n2C(=O)c1ccc(Cl)cc1 [indomethacin],,,,,,,,,did not inhibit,,,,,,,,,
Poly(I:C),0,103,22,129,"1,452 pg/mL",8,18,208,,,,,,,,,,
"C=C1[C@H](CO)[C@@H](O)C[C@@H]1n1cnc2c(=O)[nH]c(N)nc21 [ETV, Entecavir]",,,,,,,,,inhibited,Statistically significant inhibition of HBV DNA was lost,not,No body weight loss,≤ 3,5/5,No inhibition,not,significantly inhibited,No inhibition
